Like-named read-outs stand apart in the source and are kept apart here.
Columns and labels:
[1] = TOX formation tests in pulp bleaching
Method: […]. The pulp slurry was put into a 1 L glass beaker in a heated water bath. The beakers were fitted with liquid-tight covers to minimize evaporative losses of water and oxidants. After the pulp slurry was heated the oxidant solution and additional salt water was added to make a final composition of about 855 g water, 45.0 g of air-dry pulp, 8.55 g NaCl and the oxidant. The oxidant was mixed into the pulp slurry thoroughly with a stainless steel spatula for several minutes and then mixed periodically throughout the 2 hour bleaching period. The pH of the slurry was left at the natural pH created by each oxidant in the presence of the pulp.
The amount of oxidant used in each test was enough to partially bleach the amount of lignin present so that the oxidant was the limiting reagent. When peracetate oxidant was combined with Kraft pulp the evolution of some gas was observed accompanied by rapid bleaching that was clearly visible within the first few minutes. […]. After 2 hours at 50° C. the pulp slurries were vacuum filtered through a Buchner funnel over a medium porosity filter paper. There was no residual oxidant present in the filtrates. The four filtrate solutions recovered were put into amber glass bottles and preserved with sulfuric acid for total organic halide analyses, which were conducted by a third party laboratory.

[2] = Bleaching of Kraft pulp, hand sheet tests
[3] = test system: microbes; experiment: Microbial control in water at slightly alkaline pH, oxidant comparison; assay type: cell-based
From the text: In some embodiments, microbial control in water at slightly alkaline pH was compared between peracetate oxidant, […] bleach, peracetic acid and […] dioxide. Alkaline pH is encountered in a variety of applications where microbial control and sanitization is needed, including pulp and paper processing, cooling towers, water treatment and chill tanks in poultry processing. […].

[4] = ORP of oxidants at pH 7; assay type: physicochemical; conditions: 29 mM
[5] = flowback water, 22 C, pH 6.5; initial 80 mg/L (peracetate as PAA; PAA with 112 mg/L H2O2)
[6] = Thermal activation in clean water at pH 8.5 and 50 C; assay type: physicochemical; conditions: distilled water
[7] = Entry 2, bleach time 30 min, 1.13 g/L PAA equiv., initial pH 8.2
[8] = Entry 8, 30 min, 4.0 g/L, initial pH 8.0
[9] = Entry 9, 30 min, 4.0 g/L, initial pH 8.9

Compound: [O][Cl+][O-] [chlorine dioxide]
- Normalized TOX [1]: 17.7 mg/L per 1000 mg/L oxidant
- TOX [1]: 17.7 mg/L
- Final ORP [2, 7]: 896 mV vs SHE
- Final pH [2, 7]: 6.4
- performance as antimicrobial disinfectant [3]: performed well

Compound: OO [hydrogen peroxide]
- ORP [4]: about 0.5 V (vs SHE)

Compound: OCl [hypochlorous acid]
- ORP [4]: over 1.1 V (vs SHE)

Compound: CC(=O)OO [peracetic acid]
- TOX [5]: BDL (BDL = below detection limit, less than 0.05 mg/L)
- Normalized TOX ([1]; Kraft pulp 5% consistency, 1.0% NaCl, 50 C, 2 hours): 4.5 mg/L per 1000 mg/L oxidant
- TOX ([1]; Kraft pulp 5% consistency, 1.0% NaCl, 50 C, 2 hours, initial 4000 mg/L peracetate (as PAA equivalents), 4000 PAA + 5400 H2O2, 1000 ClO2, blank 0.68): 17.8 mg/L
- Final ORP ([2]; Entry 7, 30 min, 4.0 g/L, initial pH 7.0): 502 mV vs SHE
- Final pH ([2]; Entry 7, 30 min, 4.0 g/L, initial pH 7.0, stock 11.4% PAA and 15.6% H2O2): 7.0
- Final ORP [2, 8]: 406 mV vs SHE
- Final pH [2, 8]: 8.0
- Final ORP [2, 9]: 253 mV vs SHE
- Final pH [2, 9]: 8.8
- time peracetic acid and hydrogen peroxide concentrations were stable [6]: about 90 minutes
- ORP ([6]; constant during the test): around 280 mV vs SHE
- performance as antimicrobial disinfectant [3]: lowest performance

Compound: sodium peracetate [peracetate oxidant]
- total organic halides (TOX) relative to chlorine dioxide [1]: about ten times less
